From patent EP0326331B1, “Substituted quinolines and cinnolines” (Dow AgroSciences LLC, priority 1988, dated 1989)

What was measured:
Type in all cases: in vivo
corn rootworm = assay: Mite/insect screen, CRW; conditions: percent mortality; for mortality at 12 ppm: CRW rate 12.00 ppm; for mortality at 12 ppm / mortality at 24 ppm: read-out: CRW RESULTS %; for mortality at 24 ppm: CRW rate 24.00 ppm
Outline: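 Compounds were dissolved in 50:50 acetone/alcohol containing sulfonate/nonionic emulsifier blends (23 g/L plus 13 g/L), then diluted with water to the test concentrations. Percent mortality was scored after standard exposure periods.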

[1] = system: Pseudoperonospora cubensis (downy mildew); assay: Test 1 greenhouse foliar spray screen, downy mildew on squash; conditions: for pest or weed control at 400 ppm: Pseudoperonospora cubensis, foliar, Test 1, foliar spray on squash, disease control rating at 400 ppm / 100 ppm, read-out: DOWN MDEW
[2] = system: melon aphids (Aphis gossypii Glover); assay: Mite/insect screen, MA; conditions: percent mortality; for mortality at 200 ppm / mortality at 400 ppm: Aphis gossypii, foliar, foliar spray on squash, read-out: MA RESULTS %; for mortality at 200 ppm: rate 200 ppm; for mortality at 400 ppm: rate 400 ppm; for MA RESULTS %: SAW
Outline: (§1)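 Compounds dissolved in 50:50 acetone/alcohol containing sulfonate/nonionic emulsifier blends, then diluted with water to the indicated concentrations. Leaves sprayed on both surfaces to runoff at 10 psi and dried one hour. Percent mortality scored after standard exposure periods.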

[3] = system: Puccinia recondita tritici (leaf rust); assay: Test 1 greenhouse foliar spray screen, leaf rust on wheat; conditions: for pest or weed control at 400 ppm: Puccinia recondita, foliar, Test 1, foliar spray on wheat, disease control rating at 400 ppm / 100 ppm
[4] = system: southern armyworm (Spodopetra eridania Cramer); assay: Mite/insect screen, SAW; conditions: percent mortality; for mortality at 200 ppm / mortality at 400 ppm: Spodoptera eridania, foliar, foliar spray on squash, read-out: SAW RESULTS %; for mortality at 200 ppm: rate 200 ppm; for mortality at 400 ppm: rate 400 ppm
Outline: as §1

[5] = system: Pyricularia oryzae (rice blast); assay: whole plant or invertebrate; conditions: for pest or weed control at 400 ppm: Pyricularia oryzae, foliar, read-out: RICE BLAST, Test 1, foliar spray on rice, disease control rating at 400 ppm / 100 ppm
[6] = system: Twospotted spider mites (Tetranychus urticae Koch); assay: Mite/insect screen, SM; conditions: for mortality at 200 ppm / mortality at 400 ppm: Tetranychus urticae, foliar, foliar spray on squash, read-out: SM RESULTS %; for mortality at 200 ppm / mortality at 400 ppm / SM RESULTS %: percent mortality; for mortality at 200 ppm: rate 200 ppm; for mortality at 400 ppm: rate 400 ppm; for activity as miticides: summary statement in the description; for SM RESULTS %: SAW
Outline: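 Activity is expressed as percent mortality at the indicated spray concentrations. Plants are sprayed to runoff on upper and lower leaf surfaces with aqueous dilutions of an acetone/alcohol emulsifiable formulation, then dried for one hour.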

[7] = system: Venturia inaequalis (apple scab); assay: Test 1 greenhouse foliar spray screen, apple scab on apple seedling; conditions: for pest or weed control at 400 ppm: Venturia inaequalis, Test 1, foliar spray on apple seedling, disease control rating at 400 ppm / 100 ppm, read-out: APPL SCAB
[8] = system: Botrytis cinerea (gray mold); assay: Test 1 greenhouse foliar spray screen, gray mold on grape berries; conditions: for pest or weed control at 400 ppm: Botrytis cinerea, foliar, Test 1, spray on grape berries, disease control rating at 400 ppm / 100 ppm
[9] = system: Septoria tritici (leaf blotch); assay: Test 1 greenhouse foliar spray screen, leaf blotch on wheat; conditions: for pest or weed control at 400 ppm: Zymoseptoria tritici, Test 1, foliar spray on wheat, disease control rating at 400 ppm / 100 ppm, read-out: LEAF BLOT
[10] = system: Cercospora beticola (leaf spot); assay: Test 1 greenhouse foliar spray screen, leaf spot on sugar beet; conditions: for pest or weed control at 400 ppm: Cercospora beticola, Test 1, foliar spray on sugar beet, disease control rating at 400 ppm / 100 ppm
[11] = system: Erysiphe graminis tritici (powdery mildew); assay: Test 1 greenhouse foliar spray screen, powdery mildew on wheat; conditions: for pest or weed control at 400 ppm: Blumeria graminis, foliar, Test 1, foliar spray on wheat, disease control rating at 400 ppm / 100 ppm, read-out: POWD MDEW
[12] = disease control rating, foliar spray on wheat, 400 ppm (+++ at 100 ppm)

Compound	mortality at 12 ppm (corn rootworm) [%]	pest or weed control at 400 ppm [1] [%]	mortality at 200 ppm [2] [%]	pest or weed control at 400 ppm [3] [%]	mortality at 200 ppm [4] [%]	pest or weed control at 400 ppm [5] [%]	mortality at 200 ppm [6] [%]	pest or weed control at 400 ppm [7] [%]	pest or weed control at 400 ppm [8] [%]	pest or weed control at 400 ppm [9] [%]	pest or weed control at 400 ppm [10] [%]	pest or weed control at 400 ppm [11] [%]	mortality at 24 ppm (corn rootworm) [%]	mortality at 400 ppm [2] [%]	mortality at 400 ppm [4] [%]	mortality at 400 ppm [6] [%]	activity as miticides [6]	also measured
Fc1cccc2c(OCCc3cccs3)ccnc12 [Example 246, 8-fluoro-4-[2-(2-thienyl)ethoxy]quinoline]	0	90 to 100	0	90 to 100	0	90 to 100	0	90 to 100	0 to 19	90 to 100	20 to 89	90 to 100						
Fc1cccc2c(OCCc3ccc4ccccc4c3)ccnc12 [Example 247, 8-fluoro-4-[2-(2-naphthyl)ethoxy]quinoline]	0	20 to 89	0	90 to 100	20	90 to 100	90	0 to 19	0 to 19	90 to 100	0 to 19	90 to 100	0	0	50	0	particularly excellent activity	activity against rice blast ([5]; summary statement in the description): particularly excellent activity
Cc1ccc(CCOc2ccnc3c(OCCc4ccc(C)cc4)cccc23)cc1 [Example 251, 4,8-bis[2-(4-methylphenyl)ethoxy]quinoline]	0	20 to 89	0	0 to 19	0	20 to 89	0	0 to 19	0 to 19	0 to 19	0 to 19	0 to 19						
c1ccc(CCCc2ccnc3ccccc23)cc1 [Example 252, 4-(3-phenylpropyl)quinoline]	0	90 to 100	100	90 to 100	0	90 to 100	90	20 to 89	0 to 19	20 to 89	0 to 19	90 to 100	0	100	0	90		
Fc1cccc2c(CCCc3ccccc3)ccnc12 [Example 253, 8-fluoro-4-(3-phenylpropyl)quinoline]	0	90 to 100	90	90 to 100	0	90 to 100	100	90 to 100	0 to 19	20 to 89	20 to 89	90 to 100	0	100	0	100	particularly excellent activity	
Cc1ccc(CCCc2ccnc3c(F)cccc23)cc1 [Example 258, 8-fluoro-4-[3-(4-methylphenyl)propyl]quinoline]		90 to 100		90 to 100		90 to 100		0 to 19	0 to 19	20 to 89	20 to 89	90 to 100	0	100	0	90	particularly excellent activity	
Fc1cccc2c(CCCc3cccc(C(F)(F)F)c3)ccnc12 [Example 259, 8-fluoro-4-[3-[3-(trifluoromethyl)phenyl]propyl]quinoline]	0	90 to 100	90	90 to 100	0	90 to 100	100	90 to 100	20 to 89	90 to 100	0 to 19	20 to 89	0	80	0	80	particularly excellent activity	
Fc1cccc2c(CCCc3ccc(Cl)cc3)ccnc12 [Example 261, 4-[3-(4-chlorophenyl)propyl]-8-fluoroquinoline]	0	20 to 89	100	90 to 100	100	20 to 89	90	20 to 89	0 to 19	20 to 89	0 to 19	20 to 89	100	100	80	50		
N-[2-(2,3,4,5,6-tetramethylphenyl)ethyl]-8-fluoro-4-quinolinamine [Example 112]																		CRW RESULTS % (corn rootworm; CRW RATE 12.00 PPM): 0%; CRW RESULTS % (corn rootworm; CRW RATE 24.00 PPM): 0%; DOWN MDEW ([1]; disease control rating, foliar spray on squash, 400 ppm (+++ at 100 ppm)): +++ (90-100% control at 100 ppm); MA RESULTS % ([2]; SM & MA RATE 200 PPM): 0%; MA RESULTS % ([2]; SM & MA RATE 400 PPM): 0%; LEAF RUST [3, 12]: + (20-89% control at 400 ppm); SAW RESULTS % ([4]; SM & MA RATE 200 PPM): 0%; SAW RESULTS % ([4]; SM & MA RATE 400 PPM): 0%; RICE BLAST ([5]; disease control rating, foliar spray on rice, 400 ppm (+++ at 100 ppm)): - (0-19% control at 400 ppm); SM RESULTS % ([6]; SM & MA RATE 200 PPM): 0%; SM RESULTS % ([6]; SM & MA RATE 400 PPM): 0%; APPL SCAB ([7]; disease control rating, foliar spray on apple seedling, 400 ppm (+++ at 100 ppm)): - (0-19% control at 400 ppm); GRAY MOLD ([8]; disease control rating, spray on grape berries, 400 ppm (+++ at 100 ppm)): - (0-19% control at 400 ppm); LEAF BLOT [9, 12]: - (0-19% control at 400 ppm); LEAF SPOT ([10]; disease control rating, foliar spray on sugar beet, 400 ppm (+++ at 100 ppm)): - (0-19% control at 400 ppm); POWD MDEW [11, 12]: - (0-19% control at 400 ppm)
